This passage reports EC50 and CC50 results from US9855230B2 (ViiV Healthcare UK (No. 5) Limited, priority 2014, dated 2018).

The subject of data set [1] is recombinant NL4-3 virus (nef section replaced with Renilla luciferase gene) in MT-2 cells. Kind of data set: whole plant or invertebrate. It is filed as cell-based, HIV. The note with it: NL43, luciferase activity in MT-2 cells infected 4-5 days with recombinant NL4-3 virus, read-out: Activity. In outline: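 Nef-deleted NL4-3 reporter virus carrying Renilla luciferase was used to infect MT-2 cells in the presence of serial compound dilutions. After 4-5 days of infection, antiviral activity was quantified from luciferase activity using a live-cell substrate.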

A short description of data set [2]: Compound cytotoxicity (CC50), XTT-based colorimetric assay. It is filed as cell-based. The note with it: human; uninfected MT2 cells, day 4, XTT assay. Put shortly: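 Run under the antiviral-assay protocol but without virus. Viability was read on day 4 and CC50 values were derived from the readout.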

For the compound `COc1c(F)cc(F)cc1-c1cccnc1[C@H](Cc1cc(F)cc(F)c1)NC(=O)NS(=O)(=O)c1ccccc1C` [Example 134], the EC50 in data set [1] was greater than 1 µM. The same compound showed a CC50 at 4 day in data set [2] greater than 50 µM.
